Columns and labels:
[1] = target: T1, 5-hydroxytryptamine receptor 2C (Homo sapiens, UniProt P28335); assay: DRUGMATRIX: Serotonin (5-Hydroxytryptamine) 5-HT2C radioligand binding (ligand: [3H] Mesulergine); format: cell membranes, CHO-K1, Membrane; settings: Not Active = under 50% inhibition at 10 µM
T1 sequence (P28335 whole entry): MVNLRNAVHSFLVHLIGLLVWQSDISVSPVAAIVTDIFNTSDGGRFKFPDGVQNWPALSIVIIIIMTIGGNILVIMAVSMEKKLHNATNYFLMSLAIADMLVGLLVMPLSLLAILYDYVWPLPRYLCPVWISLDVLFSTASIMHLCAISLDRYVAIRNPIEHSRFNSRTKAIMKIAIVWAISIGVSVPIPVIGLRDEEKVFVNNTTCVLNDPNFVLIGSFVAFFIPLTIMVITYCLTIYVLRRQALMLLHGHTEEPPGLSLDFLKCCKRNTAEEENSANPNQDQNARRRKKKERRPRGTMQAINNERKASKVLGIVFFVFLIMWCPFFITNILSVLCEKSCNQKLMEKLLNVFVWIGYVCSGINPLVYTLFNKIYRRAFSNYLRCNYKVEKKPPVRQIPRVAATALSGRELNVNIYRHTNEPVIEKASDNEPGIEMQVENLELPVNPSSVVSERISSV

[2] = DRUGMATRIX: Sigma2 radioligand binding (ligand: [3H] Ifenprodil); format: cell membranes, Rattus norvegicus, Wistar, Brain, Membrane; settings: Not Active = under 50% inhibition at 10 µM
[3] = target: T2, C-C chemokine receptor type 4 (Homo sapiens, UniProt P51679); format: cell membranes, Chem-1, Membrane; settings: chem-1; also: in other assays of this panel Not Active means under 50% inhibition at 10 µM
T2 sequence (P51679 whole entry): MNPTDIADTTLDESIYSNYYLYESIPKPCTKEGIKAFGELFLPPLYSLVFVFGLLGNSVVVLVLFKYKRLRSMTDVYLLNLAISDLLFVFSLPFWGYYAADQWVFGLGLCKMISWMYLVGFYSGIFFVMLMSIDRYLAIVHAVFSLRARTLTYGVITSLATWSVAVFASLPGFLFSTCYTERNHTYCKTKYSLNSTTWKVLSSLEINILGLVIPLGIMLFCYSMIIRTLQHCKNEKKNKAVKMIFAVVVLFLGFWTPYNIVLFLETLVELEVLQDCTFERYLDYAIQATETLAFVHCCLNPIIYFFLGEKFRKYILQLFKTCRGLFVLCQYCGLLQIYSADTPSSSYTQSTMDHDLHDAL

[4] = DRUGMATRIX: Imidazoline I2, Central radioligand binding (ligand: [3H] Idazoxan); format: cell membranes, Rattus norvegicus, Wistar, Cerebral cortex, Membrane; settings: Not Active = under 50% inhibition at 10 µM
Melanocortin receptor 3 = Melanocortin receptor 3 (Homo sapiens, UniProt P41968); format: cell membranes, HEK293, Membrane; settings: hek293; also: in other assays of this panel Not Active means under 50% inhibition at 10 µM
Glucocorticoid receptor = target: T3, Glucocorticoid receptor (Homo sapiens, UniProt P04150); settings: hela s3; also: in other assays of this panel Not Active means under 50% inhibition at 10 µM
T3 sequence (P04150 whole entry): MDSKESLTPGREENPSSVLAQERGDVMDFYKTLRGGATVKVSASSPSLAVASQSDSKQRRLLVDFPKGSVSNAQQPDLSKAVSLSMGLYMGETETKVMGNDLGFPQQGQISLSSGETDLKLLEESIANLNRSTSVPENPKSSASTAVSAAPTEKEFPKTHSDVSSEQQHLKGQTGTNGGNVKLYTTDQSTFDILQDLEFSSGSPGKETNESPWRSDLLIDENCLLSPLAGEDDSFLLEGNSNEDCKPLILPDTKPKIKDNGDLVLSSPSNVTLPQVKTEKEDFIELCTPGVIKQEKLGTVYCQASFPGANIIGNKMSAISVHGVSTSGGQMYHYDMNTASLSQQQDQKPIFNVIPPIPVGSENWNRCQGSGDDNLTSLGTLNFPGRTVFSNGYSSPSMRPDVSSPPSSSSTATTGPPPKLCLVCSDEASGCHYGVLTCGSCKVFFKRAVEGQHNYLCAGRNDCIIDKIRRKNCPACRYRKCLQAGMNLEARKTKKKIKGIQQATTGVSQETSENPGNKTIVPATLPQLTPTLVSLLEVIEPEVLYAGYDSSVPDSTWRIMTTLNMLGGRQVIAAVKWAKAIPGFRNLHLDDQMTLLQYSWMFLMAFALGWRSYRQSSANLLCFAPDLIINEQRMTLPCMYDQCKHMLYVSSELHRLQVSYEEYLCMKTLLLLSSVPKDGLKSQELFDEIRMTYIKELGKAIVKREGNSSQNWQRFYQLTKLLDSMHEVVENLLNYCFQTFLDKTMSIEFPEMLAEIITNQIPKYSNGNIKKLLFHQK

Melanocortin receptor 3, sequence (P41968 whole entry): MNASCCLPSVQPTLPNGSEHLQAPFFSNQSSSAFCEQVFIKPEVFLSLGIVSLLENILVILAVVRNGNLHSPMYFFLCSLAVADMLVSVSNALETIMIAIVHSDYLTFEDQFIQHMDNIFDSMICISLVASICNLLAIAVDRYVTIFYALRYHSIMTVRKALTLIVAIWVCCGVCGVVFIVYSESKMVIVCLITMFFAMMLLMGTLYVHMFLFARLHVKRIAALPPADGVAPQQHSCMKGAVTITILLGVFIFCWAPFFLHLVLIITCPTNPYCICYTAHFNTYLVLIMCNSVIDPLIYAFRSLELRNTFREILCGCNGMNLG

Row | SMILES | IC50 ([1]; cho-k1) | IC50 [2] | Ki [2] | IC50 [3] | IC50 [4] | Ki [4] | IC50 (Melanocortin receptor 3) | IC50 ([4]; read-out: IC50) | Ki ([4]; read-out: Ki) | IC50 (Glucocorticoid receptor) | IC50 ([1]; read-out: IC50) | Ki ([1]; read-out: Ki) | IC50 ([2]; read-out: IC50) | Ki ([2]; read-out: Ki)
1 | C[C@H]1c2cccc(O)c2C(=O)C2=C(O)[C@]3(O)C(=O)C(C(N)=O)=C(O)[C@@H](N(C)C)[C@@H]3[C@@H](O)[C@@H]21.O [DOXYCYCLINE] | Not Active | Not Active | Not Active | Not Active | Not Active | Not Active | Not Active |  |  |  |  |  |  | 
2 | C[C@]12CC[C@@H]3c4ccc(O)cc4CC[C@H]3[C@@H]1CCC2=O [ESTRONE] | Not Active | Not Active | Not Active | Not Active | Not Active | Not Active | Not Active |  |  |  |  |  |  | 
3 | CC(C)C(=O)Nc1ccc([N+](=O)[O-])c(C(F)(F)F)c1 [FLUTAMIDE] | Not Active | Not Active | Not Active | Not Active | Not Active | Not Active | Not Active |  |  |  |  |  |  | 
4 | CC1(C)O[C@@H]2C[C@H]3[C@@H]4CCC5=CC(=O)CC[C@]5(C)[C@@]4(F)[C@@H](O)C[C@]3(C)[C@]2(C(=O)CCl)O1 [HALCINONIDE] | Not Active | Not Active | Not Active | Not Active | Not Active | Not Active | Not Active |  |  |  |  |  |  | 
5 | CC1Cc2ccccc2N1NC(=O)c1ccc(Cl)c(S(N)(=O)=O)c1 (configuration not stated) [INDAPAMIDE] | Not Active | Not Active | Not Active | Not Active | Not Active | Not Active | Not Active |  |  |  |  |  |  | 
6 | CCC(C)n1ncn(-c2ccc(N3CCN(c4ccc(OCC5COC(Cn6cncn6)(c6ccc(Cl)cc6Cl)O5)cc4)CC3)cc2)c1=O (configuration not stated) [ITRACONAZOLE] | Not Active | Not Active | Not Active | Not Active | Not Active | Not Active | Not Active |  |  |  |  |  |  | 
7 | CCCCN1CCCC[C@H]1C(=O)Nc1c(C)cccc1C [LEVOBUPIVACAINE] | Not Active | Not Active | Not Active | Not Active | Not Active | Not Active | Not Active |  |  |  |  |  |  | 
8 | Sc1ncnc2nc[nH]c12 [MERCAPTOPURINE ANHYDROUS] | Not Active | Not Active | Not Active | Not Active | Not Active | Not Active | Not Active |  |  |  |  |  |  | 
9 | C[C@](N)(Cc1ccc(O)c(O)c1)C(=O)O [METHYLDOPA] | Not Active | Not Active | Not Active | Not Active | Not Active | Not Active | Not Active |  |  |  |  |  |  | 
10 | C[C@]12CCC(=O)C=C1CC[C@@H]1[C@@H]2CC[C@@]2(C)[C@H]1CC[C@]2(C)O [METHYLTESTOSTERONE] | Not Active | Not Active | Not Active | Not Active | Not Active | Not Active | Not Active |  |  |  |  |  |  | 
11 | CCCN1C[C@H](CSC)C[C@@H]2c3cccc4[nH]cc(c34)C[C@H]21 [PERGOLIDE] |  | Not Active | Not Active | Not Active |  |  | Not Active | 3080 nM | 2050 nM | Not Active |  |  |  | 
12 | Cc1ccc(N(CC2=NCCN2)c2cccc(O)c2)cc1 [PHENTOLAMINE] |  | Not Active | Not Active | Not Active |  |  | Not Active | 58 nM | 39 nM | Not Active |  |  |  | 
13 | CN(C)CCCN1c2ccccc2Sc2ccccc21 [PROMAZINE] |  |  |  | Not Active |  |  | Not Active | 1100 nM | 732 nM |  | 99 nM | 52 nM | 2540 nM | 1560 nM

— ChEMBL document CHEMBL1909046, “DrugMatrix in vitro pharmacology data”
